pIC50: −log10 of the molar value. Read-outs that look alike come from different tables or passages of the source.
What was measured:
Assay type in all cases: cell-based
AKT2 = target: T1, AKT2 (Homo sapiens, UniProt P31751); assay: Live cell AKT2 target engagement by NanoBRET competitive probe displacement; conditions: HEK293 cells transfected with kinase-NanoLuciferase fusion, 2 h at 37° C.
T1 construct: expressed in transfected cells; host or cells: HEK293
In short: (§1)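 IC50 fitted (Hill, log inhibitor vs response) to BRET signal, E600/E460 ratio, measured with extracellular NanoLuc inhibitor present. Intact transfected HEK293 cells bearing NanoLuc-tagged kinase were co-incubated 2 h, 37 °C, with compound dilution series and ~EC50 ATP-competitive fluorescent tracer.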

AKT1 E17K = target: T2, AKT1 E17K (Homo sapiens, UniProt P31749, E17K); assay: Live cell AKT1 E17K target engagement by NanoBRET competitive probe displacement; conditions: HEK293 cells transfected with kinase-NanoLuciferase fusion, 2 h at 37° C.
T2 construct: expressed in transfected cells; host or cells: HEK293
T2 sequence (P31749 whole entry E17K, the tested form may be a part): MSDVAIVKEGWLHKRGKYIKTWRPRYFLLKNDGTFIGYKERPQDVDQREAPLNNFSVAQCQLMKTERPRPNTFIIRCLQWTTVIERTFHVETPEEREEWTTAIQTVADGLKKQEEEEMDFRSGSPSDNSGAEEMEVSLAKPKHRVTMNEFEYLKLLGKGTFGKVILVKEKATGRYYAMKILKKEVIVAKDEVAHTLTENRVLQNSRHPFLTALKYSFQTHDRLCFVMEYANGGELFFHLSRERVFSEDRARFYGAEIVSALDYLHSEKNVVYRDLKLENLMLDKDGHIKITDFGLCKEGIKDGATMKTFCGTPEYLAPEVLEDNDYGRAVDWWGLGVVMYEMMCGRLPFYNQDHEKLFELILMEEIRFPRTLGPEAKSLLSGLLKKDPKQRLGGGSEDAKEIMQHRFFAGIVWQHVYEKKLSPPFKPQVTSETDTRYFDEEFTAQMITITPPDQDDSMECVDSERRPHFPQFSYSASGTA
In short: as §1

AKT1 WT = target: T3, AKT1 WT (Homo sapiens, UniProt P31749); assay: Live cell AKT1 WT target engagement by NanoBRET competitive probe displacement; conditions: HEK293 cells transfected with kinase-NanoLuciferase fusion, 2 h at 37° C.
T3 construct: expressed in transfected cells; host or cells: HEK293
T3 sequence (P31749 whole entry, the tested form may be a part): as the sequence (P31749 whole entry E17K, the tested form may be a part) above, with K17E counted along it
In short: as §1

[1] = tested on: LAPC4 prostate cancer cells; assay: Antiproliferative effects in LAPC4 cells (CellTiter Glo); conditions: LAPC4 cells (AKT1 E17K allele), read-out: LAPC4 proliferation IC50
In short: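 Growth inhibition was measured by CellTiter Glo ATP luminescence after 72 h compound exposure of 1,000 seeded cells/well. The cells were AKT1 E17K-expressing LAPC4 prostate cancer cells maintained in IMDM plus 12% FBS. IC50 values came from Hill-equation fits.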

T1 sequence (P31751 whole entry, the tested form may be a part): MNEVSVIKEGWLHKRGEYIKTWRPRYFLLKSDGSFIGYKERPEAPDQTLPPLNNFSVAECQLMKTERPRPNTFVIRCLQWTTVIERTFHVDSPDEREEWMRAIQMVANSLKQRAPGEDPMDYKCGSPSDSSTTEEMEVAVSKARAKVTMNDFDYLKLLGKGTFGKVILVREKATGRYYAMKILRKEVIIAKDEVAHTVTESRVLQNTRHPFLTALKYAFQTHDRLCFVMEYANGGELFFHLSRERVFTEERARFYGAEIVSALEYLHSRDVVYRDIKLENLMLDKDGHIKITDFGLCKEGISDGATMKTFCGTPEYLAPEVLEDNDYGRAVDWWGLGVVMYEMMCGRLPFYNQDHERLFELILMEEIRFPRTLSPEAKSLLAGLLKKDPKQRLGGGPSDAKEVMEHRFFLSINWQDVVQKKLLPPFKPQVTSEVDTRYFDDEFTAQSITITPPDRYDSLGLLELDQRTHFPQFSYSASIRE

| SMILES | pIC50 (AKT2) | pIC50 (AKT1 E17K) | pIC50 (AKT1 WT) | pIC50 ([1]; 72 h) | pIC50 ([1]; Homo sapiens, LAPC4, 72 h) |
| --- | --- | --- | --- | --- | --- |
| C=CC(=O)N1CCC(N[C@@H]2c3ccc(-n4c(-c5cccnc5N)nc5ccc(-n6ccc(F)n6)nc54)cc3CC2F)C[C@H]1C (single isomer, unassigned) [Example 275, 1-((2R,4*)-4-(((1R,2*)-5-(2-(2-aminopyridin-3-yl)-5-(3-fluoro-1H-pyrazol-1-yl)-3H-imidazo[4,5-b]pyridin-3-yl)-2-fluoro-2,3-dihydro-1H-inden-1-yl)amino)-2-methylpiperidin-1-yl)prop-2-en-1-one] | 7.09 | 7.08 | 5.58 | 6.49 |  |
| C=CC(=O)N1CCC(N[C@@H]2c3ccc(-n4c(-c5cccnc5N)nc5ccc(-n6ccc(F)n6)nc54)cc3CC2F)C[C@H]1C (single isomer, unassigned) [Example 276, 1-((2R,4*)-4-(((1R,2*)-5-(2-(2-aminopyridin-3-yl)-5-(3-fluoro-1H-pyrazol-1-yl)-3H-imidazo[4,5-b]pyridin-3-yl)-2-fluoro-2,3-dihydro-1H-inden-1-yl)amino)-2-methylpiperidin-1-yl)prop-2-en-1-one] | 6.97 | 7.51 | 5.87 | 6.42 |  |
| C=CC(=O)N1CCC(N[C@@H]2c3ccc(-n4c(-c5cccnc5N)nc5ccc(-n6ccc(F)n6)nc54)cc3CC2F)C[C@H]1C (single isomer, unassigned) [Example 277, 1-((2R,4*)-4-(((1R,2*)-5-(2-(2-aminopyridin-3-yl)-5-(3-fluoro-1H-pyrazol-1-yl)-3H-imidazo[4,5-b]pyridin-3-yl)-2-fluoro-2,3-dihydro-1H-inden-1-yl)amino)-2-methylpiperidin-1-yl)prop-2-en-1-one] | 7.26 | 7.63 | 6.09 | 6.86 |  |
| C=CC(=O)N1CCC(N[C@@H]2c3ccc(-n4c(-c5cccnc5N)nc5ccc(-n6ccc(OC)n6)nc54)cc3CC2F)CC1 (single isomer, unassigned) [Example 286, 1-(4-(((1R,2*)-5-(2-(2-aminopyridin-3-yl)-5-(3-methoxy-1H-pyrazol-1-yl)-3H-imidazo[4,5-b]pyridin-3-yl)-2-fluoro-2,3-dihydro-1H-inden-1-yl)amino)piperidin-1-yl)prop-2-en-1-one] | 7.44 | 7.97 | 6.56 |  | 6.91 |
| C=CC(=O)N1CCC(N[C@@H]2c3ccc(-n4c(-c5cccnc5N)nc5ccc(-n6ccc(OC)n6)nc54)cc3CC2F)CC1 (single isomer, unassigned) [Example 287, 1-(4-(((1R,2*)-5-(2-(2-aminopyridin-3-yl)-5-(3-methoxy-1H-pyrazol-1-yl)-3H-imidazo[4,5-b]pyridin-3-yl)-2-fluoro-2,3-dihydro-1H-inden-1-yl)amino)piperidin-1-yl)prop-2-en-1-one] | 7.38 | 8.11 | 6.64 | 6.96 |  |
| C=CC(=O)N1CCC(N[C@@H]2c3ccc(-n4c(-c5cccnc5N)nc5ccc(-n6cccn6)nc54)cc3CC2F)C(C)C1 (single isomer, unassigned) [Example 288, 1-[(3*,4*)-4-{[(1R,2*)-5-[2-(2-aminopyridin-3-yl)-5-(pyrazol-1-yl)imidazo[4,5-b]pyridin-3-yl]-2-fluoro-2,3-dihydro-1H-inden-1-yl]amino}-3-methylpiperidin-1-yl]prop-2-en-1-one] | 6.67 | 7.42 | 5.68 | 5.82 |  |
| C=CC(=O)N1CCC(N[C@@H]2c3ccc(-n4c(-c5cccnc5N)nc5ccc(-n6cccn6)nc54)cc3CC2F)C(C)C1 (single isomer, unassigned) [Example 289, 1-[(3*,4*)-4-{[(1R,2*)-5-[2-(2-aminopyridin-3-yl)-5-(pyrazol-1-yl)imidazo[4,5-b]pyridin-3-yl]-2-fluoro-2,3-dihydro-1H-inden-1-yl]amino}-3-methylpiperidin-1-yl]prop-2-en-1-one] | 6.84 | 7.71 | 6.10 | 6.17 |  |
| C=CC(=O)N1CCC(N[C@@H]2c3ccc(-n4c(-c5cccnc5N)nc5ccc(-n6cccn6)nc54)cc3CC2F)C(C)C1 (single isomer, unassigned) [Example 290, 1-[(3*,4*)-4-{[(1R,2*)-5-[2-(2-aminopyridin-3-yl)-5-(pyrazol-1-yl)imidazo[4,5-b]pyridin-3-yl]-2-fluoro-2,3-dihydro-1H-inden-1-yl]amino}-3-methylpiperidin-1-yl]prop-2-en-1-one] | 6.91 | 7.71 | 6.18 | 6.34 |  |
| C=CC(=O)N1CCC(N[C@@H]2c3ccc(-n4c(-c5cccnc5N)nc5ccc(-n6cccn6)nc54)cc3CC2F)C(C)C1 (single isomer, unassigned) [Example 291, 1-[(3*,4*)-4-{[(1R,2*)-5-[2-(2-aminopyridin-3-yl)-5-(pyrazol-1-yl)imidazo[4,5-b]pyridin-3-yl]-2-fluoro-2,3-dihydro-1H-inden-1-yl]amino}-3-methylpiperidin-1-yl]prop-2-en-1-one] | 6.45 | 7.17 | 5.80 | 5.95 |  |
| C=CC(=O)N1CCC(N[C@@H]2c3ccc(-n4c(-c5cccnc5N)nc5ccc(-n6ccc(C7CC7)n6)nc54)cc3CC2F)CC1 (single isomer, unassigned) [Example 297, 1-(4-(((1R,2*)-5-(2-(2-aminopyridin-3-yl)-5-(3-cyclopropyl-1H-pyrazol-1-yl)-3H-imidazo[4,5-b]pyridin-3-yl)-2-fluoro-2,3-dihydro-1H-inden-1-yl)amino)piperidin-1-yl)prop-2-en-1-one] | 6.97 | 7.62 | 6.23 |  | 6.29 |
| C=CC(=O)N1CCC(N[C@@H]2c3ccc(-n4c(-c5cccnc5N)nc5ccc(-n6ccc(C7CC7)n6)nc54)cc3CC2F)CC1 (single isomer, unassigned) [Example 298, 1-(4-(((1R,2*)-5-(2-(2-aminopyridin-3-yl)-5-(3-cyclopropyl-1H-pyrazol-1-yl)-3H-imidazo[4,5-b]pyridin-3-yl)-2-fluoro-2,3-dihydro-1H-inden-1-yl)amino)piperidin-1-yl)prop-2-en-1-one] | 7.24 | 7.85 | 6.53 | 6.50 |  |
| C=CC(=O)N1CCC(N[C@@H]2c3ccc(-n4c(-c5ccccc5F)nc5ccc(-n6cccn6)nc54)cc3CC2F)CC1 (single isomer, unassigned) [Example 300, 1-(4-(((1R,2*)-2-fluoro-5-(2-(2-fluorophenyl)-5-(1H-pyrazol-1-yl)-3H-imidazo[4,5-b]pyridin-3-yl)-2,3-dihydro-1H-inden-1-yl)amino)piperidin-1-yl)prop-2-en-1-one] | 7.46 | 8.04 | 5.63 | 6.41 |  |
| C=CC(=O)N1CCC(N[C@@H]2c3ccc(-n4c(-c5cccnc5N)nc5ccc(-n6cccn6)nc54)cc3CC2F)CC1C(F)F (single isomer, unassigned) [Example 302, 1-((2*,4*)-4-(((1R,2*)-5-(2-(2-aminopyridin-3-yl)-5-(1H-pyrazol-1-yl)-3H-imidazo[4,5-b]pyridin-3-yl)-2-fluoro-2,3-dihydro-1H-inden-1-yl)amino)-2-(difluoromethyl)piperidin-1-yl)prop-2-en-1-one] | 7.48 | 7.77 | 7.09 | 6.89 |  |
| C=CC(=O)N1CCC(N[C@@H]2c3ccc(-n4c(-c5cccnc5N)nc5ccc(-n6cccn6)nc54)cc3CC2F)CC1C(F)F (single isomer, unassigned) [Example 304, 1-((2*,4*)-4-(((1R,2*)-5-(2-(2-aminopyridin-3-yl)-5-(1H-pyrazol-1-yl)-3H-imidazo[4,5-b]pyridin-3-yl)-2-fluoro-2,3-dihydro-1H-inden-1-yl)amino)-2-(difluoromethyl)piperidin-1-yl)prop-2-en-1-one] | 7.44 | 7.94 | 6.58 | 6.19 |  |
| C=CC(=O)N1CCC(N[C@H]2CCc3cc(-n4c(-c5cccnc5N)nc5ccc(-n6cccn6)nc54)ccc32)C(C)(F)C1 (single isomer, unassigned) [Example 307, 1-((3*,4*)-4-(((S)-5-(2-(2-aminopyridin-3-yl)-5-(1H-pyrazol-1-yl)-3H-imidazo[4,5-b]pyridin-3-yl)-2,3-dihydro-1H-inden-1-yl)amino)-3-fluoro-3-methylpiperidin-1-yl)prop-2-en-1-one] | 6.97 | 7.91 | 6.53 | 6.46 |  |
| C=CC(=O)N1CCC(N[C@H]2CCc3cc(-n4c(-c5cccnc5N)nc5ccc(-n6cccn6)nc54)ccc32)C(C)(F)C1 (single isomer, unassigned) [Example 309, 1-((3*,4*)-4-(((S)-5-(2-(2-aminopyridin-3-yl)-5-(1H-pyrazol-1-yl)-3H-imidazo[4,5-b]pyridin-3-yl)-2,3-dihydro-1H-inden-1-yl)amino)-3-fluoro-3-methylpiperidin-1-yl)prop-2-en-1-one] | 7.65 | 8.09 | 6.84 | 6.96 |  |
